What was measured:
[1] = system: L1210; experiment: Antitumor activity was assessed against L1210 tumors in B6D2F1 mouse by inoculation of 10e5 tumor cells through intravenous route and mean death of animals (treated/control) was reported at 100 mg/kg peroral dose; assay type: functional; details: route oral
[2] = system: L1210; experiment: Antitumor activity was assessed against L1210 tumors in B6D2F1 mouse by inoculation of 10e5 tumor cells through intravenous route and mean death of animals (treated/control) was reported at 200 mg/kg peroral dose; assay type: functional; details: route oral
[3] = system: L1210; experiment: Antitumor activity was assessed against L1210 tumors in B6D2F1 mouse by inoculation of 10e5 tumor cells through intravenous route and mean death of animals (treated/control) was reported at 50 mg/kg peroral dose; assay type: functional; details: route oral
[4] = system: L1210; experiment: Antitumor activity was assessed against L1210 tumors in B6D2F1 mouse by inoculation of 10e5 tumor cells through iv route and mean death of animals (treated/control) was reported at 10 mg/kg po dose; assay type: functional
[5] = system: L1210; experiment: Antitumor activity was assessed against L1210 tumors in B6D2F1 mouse by inoculation of 10e5 tumor cells through iv route and mean death of animals (treated/control) was reported at 40 mg/kg po dose; assay type: functional
[6] = system: L1210; experiment: Antitumor activity was assessed against L1210 tumors in B6D2F1 mouse by inoculation of 10e5 tumor cells through iv route and mean death of animals (treated/control) was reported at 20 mg/kg po dose; assay type: functional
[7] = Antitumor activity was assessed against TLX5 tumors in CBA/CA mouse by inoculation of 2 x 10e5 tumor cells through sc route and mean death of animals (treated/control) was reported at 80 mg/kg dose; assay type: functional; details: route subcutaneous
[8] = Antitumor activity was assessed against TLX5 tumors in CBA/CA mouse by inoculation of 2 x 10e5 tumor cells through sc route and mean death of animals (treated/control) was reported at 40 mg/kg dose; assay type: functional; details: route subcutaneous
[9] = Antitumor activity was assessed against TLX5 tumors in CBA/CA mouse by inoculation of 2 x 10e5 tumor cells through sc route and number of survivors was reported at 40 mg/kg ip dose; 3/5; assay type: functional; details: route subcutaneous
[10] = Antitumor activity was assessed against TLX5 tumors in CBA/CA mouse by inoculation of 2 x 10e5 tumor cells through sc route and mean death of animals (treated/control) was reported at 20 mg/kg dose; assay type: functional; details: route subcutaneous
[11] = system: L1210; experiment: Antitumor activity was assessed against L1210 tumors in B6D2F1 mouse by inoculation of 10e5 tumor cells through iv route and number of Survivors to duration was reported at 40 mg/kg po dose; 7/7; assay type: functional
[12] = Antitumor activity was assessed against TLX5 tumors in CBA/CA mouse by inoculation of 2 x 10e5 tumor cells through sc route and number of survivors was reported at 20 mg/kg ip dose; 3/5; assay type: functional; details: route subcutaneous
[13] = Antitumor activity was assessed against TLX5 tumors in CBA/CA mouse by inoculation of 2 x 10e5 tumor cells through sc route and mean death of animals (treated/control) was reported at 320 mg/kg dose; assay type: functional; details: route subcutaneous
[14] = Antitumor activity was assessed against TLX5 tumors in CBA/CA mouse by inoculation of 2 x 10e5 tumor cells through sc route and mean death of animals (treated/control) was reported at 160 mg/kg dose; assay type: functional; details: route subcutaneous
[15] = system: L1210; experiment: Antitumor activity was assessed against L1210 tumors in B6D2F1 mouse by inoculation of 10e5 tumor cells through iv route and mean death of animals (treated/control) was reported at 50 mg/kg po dose; assay type: functional
[16] = system: L1210; experiment: Antitumor activity was assessed against L1210 tumors in B6D2F1 mouse by inoculation of 10e5 tumor cells through iv route and mean death of animals (treated/control) was reported at 200 mg/kg po dose; assay type: functional
[17] = system: L1210; experiment: Antitumor activity was assessed against L1210 tumors in B6D2F1 mouse by inoculation of 10e5 tumor cells through iv route and mean death of animals (treated/control) was reported at 100 mg/kg po dose; assay type: functional
[18] = system: L1210; experiment: Antitumor activity was assessed against L1210 tumors in B6D2F1 mouse by inoculation of 10e5 tumor cells through iv route and mean death of animals (treated/control) was reported at 80 mg/kg po dose; assay type: functional
[19] = system: L1210; experiment: Antitumor activity was assessed against L1210 tumors in B6D2F1 mouse by inoculation of 10e5 tumor cells through iv route and mean death of animals (treated/control) was reported at 160 mg/kg po dose; assay type: functional
[20] = Antitumor activity was assessed against TLX5 tumors in CBA/CA mouse by inoculation of 2 x 10e5 tumor cells through sc route and number of survivors to duration was reported at 40 mg/kg ip dose; 2/5; assay type: functional; details: route subcutaneous
[21] = Antitumor activity was assessed against TLX5 tumors in CBA/CA mouse by inoculation of 2 x 10e5 tumor cells through sc route and number of survivors to duration was reported at 80 mg/kg ip dose; 5/5; assay type: functional; details: route subcutaneous
[22] = Antitumor activity was assessed against TLX5 tumors in CBA/CA mouse by inoculation of 2 x 10e5 tumor cells through subcutaneous route and mean death of animals (treated/control) was reported at 20 mg/kg ip dose; assay type: functional
[23] = Antitumor activity was assessed against TLX5 tumors in CBA/CA mouse by inoculation of 2 x 10e5 tumor cells through subcutaneous route and mean death of animals (treated/control) was reported at 40 mg/kg dose; assay type: functional
[24] = Antitumor activity was assessed against TLX5 tumors in CBA/CA mouse by inoculation of 2 x 10e5 tumor cells through subcutaneous route and mean death of animals (treated/control) was reported at 160 mg/kg dose; assay type: functional
[25] = Antitumor activity was assessed against TLX5 tumors in CBA/CA mouse by inoculation of 2 x 10e5 tumor cells through subcutaneous route and mean death of animals (treated/control) was reported at 80 mg/kg dose; assay type: functional
[26] = Antitumor activity was assessed against TLX5 tumors in CBA/CA mouse by inoculation of 2 x 10e5 tumor cells through subcutaneous route and mean death of animals (treated/control) was reported at 10 mg/kg ip dose; assay type: functional
[27] = Antitumor activity was assessed against TLX5 tumors in CBA/CA mouse by inoculation of 2 x 10e5 tumor cells through subcutaneous route and mean death of animals (treated/control) was reported at 40 mg/kg iv dose; assay type: functional
[28] = Antitumor activity was assessed against TLX5 tumors in CBA/CA mouse by inoculation of 2 x 10e5 tumor cells through subcutaneous route and number of Survivors to duration was reported at 20 mg/kg iv dose; 1/5; assay type: functional
[29] = system: L1210; experiment: Antitumor activity was assessed against L1210 tumors in B6D2F1 mouse by inoculation of 10e5 tumor cells through intraperitoneal route and number of Survivors to duration was reported at 20 mg/kg peroral dose; 10/10; details: route oral
[30] = Antitumor activity was assessed against TLX5 tumors in CBA/CA mouse by inoculation of 2 x 10e5 tumor cells through subcutaneous route and number of Survivors to duration was reported at 40 mg/kg iv dose; 5/5; assay type: functional
[31] = system: L1210; experiment: Antitumor activity was assessed against L1210 tumors in B6D2F1 mouse by inoculation of 10e5 tumor cells through ip route and mean death of animals (treated/control) was reported at 20 mg/kg peroral dose; assay type: functional; details: route oral
[32] = Antitumor activity was assessed against TLX5 tumors in CBA/CA mouse by inoculation of 2 x 10e5 tumor cells through subcutaneous route and mean death of animals (treated/control) was reported at 5 mg/kg dose; assay type: functional
[33] = system: L1210; experiment: Antitumor activity was assessed against L1210 tumors in B6D2F1 mouse by inoculation of 10e5 tumor cells through intravenous route and number of Survivors to duration was reported at 10 mg/kg peroral dose; 2/10; assay type: functional; details: route oral
[34] = system: L1210; experiment: Antitumor activity was assessed against L1210 tumors in B6D2F1 mouse by inoculation of 10e5 tumor cells through ip route and mean death of animals (treated/control) was reported at 10 mg/kg peroral dose; assay type: functional; details: route oral
[35] = Antitumor activity was assessed against TLX5 tumors in CBA/CA mouse by inoculation of 2 x 10e5 tumor cells through subcutaneous route and mean death of animals (treated/control) was reported at 20 mg/kg dose; assay type: functional
[36] = Antitumor activity was assessed against TLX5 tumors in CBA/CA mouse by inoculation of 2 x 10e5 tumor cells through subcutaneous route and mean death of animals (treated/control) was reported at 80 mg/kg iv dose; assay type: functional
[37] = system: L1210; experiment: Antitumor activity was assessed against L1210 tumors in B6D2F1 mouse by inoculation of 10e5 tumor cells through ip route and mean death of animals (treated/control) was reported at 40 mg/kg peroral dose; assay type: functional; details: route oral
[38] = system: L1210; experiment: Antitumor activity was assessed against L1210 tumors in B6D2F1 mouse by inoculation of 10e5 tumor cells through intraperitoneal route and number of Survivors to duration was reported at 40 mg/kg peroral dose; 2/10; details: route oral
[39] = Antitumor activity was assessed against TLX5 tumors in CBA/CA mouse by inoculation of 2 x 10e5 tumor cells through subcutaneous route and mean death of animals (treated/control) was reported at 10 mg/kg iv dose; assay type: functional

For `O=c1n(CCCl)nnc2c([N+](=O)[O-])cnn12`, which T/C [1] is on record?
Its T/C is 100%.

What about the T/C [2] of the same molecule?
The T/C was 101%.

And the T/C [3]?
Its T/C is 101%.

For `CN(C)S(=O)(=O)c1ncn2c(=O)n(CCCl)nnc12`, which T/C [4] is on record?
The T/C was 152%.

And the T/C [5]?
Its T/C is >750%.

And the T/C [6]?
Its T/C is 222%.

And the T/C [7]?
Its T/C is 68%.

What about the T/C [8] of the same molecule?
The T/C was >381%.

And the Survivors [9]?
Its Survivors is 3.

And the T/C [10]?
Its T/C is >385%.

What about the Survivors [11] of the same molecule?
Its Survivors is 7.

What about the Survivors [12] of the same molecule?
Its Survivors is 3.

Which T/C [13] does the source give for `COc1ccc(CNS(=O)(=O)c2ncn3c(=O)n(CCCl)nnc23)cc1` here?
The T/C was 109%.

And the T/C [7]?
Its T/C is 151%.

What about the T/C [10] of the same molecule?
The T/C was 113%.

And the T/C [14]?
Its T/C is 123%.

What does the source list for `O=c1n(CCCl)nnc2c(-c3ccccc3)ncn12`?
T/C [1]: 100%; T/C [2]: 100%; T/C [3]: 100%

Which results are given for `O=c1n(CCCl)nnc2c([N+](=O)[O-])ncn12`?
T/C [1]: 98%; T/C [2]: 98%; T/C [3]: 98%

Which T/C [15] does the source give for `CC(C)c1nc(C(N)=O)c2nnn(CCCl)c(=O)n12` here?
The T/C was 100%.

What about the T/C [16] of the same molecule?
The T/C was 137%.

What about the T/C [17] of the same molecule?
The T/C was 104%.

For `CCCCc1nc(C(N)=O)c2nnn(CCCl)c(=O)n12`, which T/C [18] is on record?
The T/C was 113%.

What about the T/C [5] of the same molecule?
The T/C was 100%.

What about the T/C [19] of the same molecule?
Its T/C is 147%.

With `NC(=O)c1nc(Cc2ccccc2)n2c(=O)n(CCCl)nnc12` as the molecule, how does the T/C [1] read?
Its T/C is 114%.

What about the T/C [2] of the same molecule?
Its T/C is 127%.

And the T/C [3]?
Its T/C is 105%.

With `CN(C(=O)c1ncn2c(=O)n(CCCl)nnc12)c1ccccc1` as the molecule, how does the T/C [1] read?
The T/C was 100%.

And the T/C [2]?
Its T/C is 100%.

And the T/C [3]?
The T/C was 100%.

For `Cc1nc(C(N)=O)c2nnn(CCCl)c(=O)n12`, which T/C [4] is on record?
Its T/C is 128%.

And the T/C [18]?
The T/C was 248%.

And the T/C [13]?
Its T/C is 66%.

What about the T/C [5] of the same molecule?
Its T/C is 180%.

And the T/C [19]?
The T/C was 267%.

What about the T/C [7] of the same molecule?
The T/C was >550%.

What about the T/C [8] of the same molecule?
The T/C was >343%.

And the T/C [10]?
The T/C was 176%.

What about the T/C [14] of the same molecule?
Its T/C is 80%.

And the Survivors [20]?
The Survivors was 2.

And the Survivors [21]?
Its Survivors is 5.

With `N#Cc1ncn2c(=O)n(CCCl)nnc12` as the molecule, how does the T/C [22] read?
The T/C was 102%.

What about the T/C [23] of the same molecule?
Its T/C is 102%.

What about the T/C [24] of the same molecule?
Its T/C is 80%.

What about the T/C [25] of the same molecule?
Its T/C is 104%.

And the T/C [26]?
The T/C was 96%.

What does the source list for `CNC(=O)c1ncn2c(=O)n(CCCl)nnc12`?
T/C [27]: >555%; Survivors [28]: 1; Survivors [29]: 10; Survivors [30]: 5; T/C [31]: >453%; T/C [32]: 104%; Survivors [33]: 2; T/C [34]: >192%; T/C [35]: >254%; T/C [36]: 72%; T/C [37]: >215%; Survivors [38]: 2; T/C [39]: 133%

Which T/C [4] does the source give for `CCc1nc(C(N)=O)c2nnn(CCCl)c(=O)n12` here?
Its T/C is 105%.

And the T/C [5]?
The T/C was 212%.

And the T/C [6]?
Its T/C is 145%.

Which T/C [1] does the source give for `NC(=O)c1nc(C2CCCCC2)n2c(=O)n(CCCl)nnc12` here?
The T/C was 86%.

What about the T/C [2] of the same molecule?
Its T/C is 90%.

What about the T/C [3] of the same molecule?
The T/C was 94%.

From ChEMBL document CHEMBL1123898, “Antitumor imidazotetrazines. 14. Synthesis and antitumor activity of 6- and 8-substituted imidazo[5,1-d]-1,2,3,5-tetrazinones and 8-substituted pyrazolo[5,1-d]-1,2,3,5-tetrazinones” (1987)
